Measured values reported in ChEMBL document CHEMBL5543122, “Discovery of HC-7366: An Orally Bioavailable and Efficacious GCN2 Kinase Activator” (J Med Chem, 2024).
Activity calls are given as the source filed them. No cut-off for these calls is given here.

How the values were obtained:
[1] = Intrinsic clearance in rat hepatocytes assessed per 10^4 cells at 1 uM measured upto 120 mins by UPLC-MS/MS analysis; assay type: ADME, cell-based, Hepatocyte; settings: 2 h
[2] = Intrinsic clearance in human hepatocytes assessed per 10^4 cells at 1 uM measured upto 120 mins by UPLC-MS/MS analysis; assay type: ADME, cell-based, Hepatocyte; settings: 2 h
[3] = molecular target: T1, Eukaryotic translation initiation factor 2-alpha kinase 3 (Homo sapiens, UniProt Q9NZJ5); test: Activation of PERK in HEK293 cells transfected with ATF4 response element preincubated for 30 mins followed by tunicamycin addition and measured after 6 hrs by One-Glo reagent based plate reader assay; assay type: cell-based
T1 sequence (Q9NZJ5 whole entry): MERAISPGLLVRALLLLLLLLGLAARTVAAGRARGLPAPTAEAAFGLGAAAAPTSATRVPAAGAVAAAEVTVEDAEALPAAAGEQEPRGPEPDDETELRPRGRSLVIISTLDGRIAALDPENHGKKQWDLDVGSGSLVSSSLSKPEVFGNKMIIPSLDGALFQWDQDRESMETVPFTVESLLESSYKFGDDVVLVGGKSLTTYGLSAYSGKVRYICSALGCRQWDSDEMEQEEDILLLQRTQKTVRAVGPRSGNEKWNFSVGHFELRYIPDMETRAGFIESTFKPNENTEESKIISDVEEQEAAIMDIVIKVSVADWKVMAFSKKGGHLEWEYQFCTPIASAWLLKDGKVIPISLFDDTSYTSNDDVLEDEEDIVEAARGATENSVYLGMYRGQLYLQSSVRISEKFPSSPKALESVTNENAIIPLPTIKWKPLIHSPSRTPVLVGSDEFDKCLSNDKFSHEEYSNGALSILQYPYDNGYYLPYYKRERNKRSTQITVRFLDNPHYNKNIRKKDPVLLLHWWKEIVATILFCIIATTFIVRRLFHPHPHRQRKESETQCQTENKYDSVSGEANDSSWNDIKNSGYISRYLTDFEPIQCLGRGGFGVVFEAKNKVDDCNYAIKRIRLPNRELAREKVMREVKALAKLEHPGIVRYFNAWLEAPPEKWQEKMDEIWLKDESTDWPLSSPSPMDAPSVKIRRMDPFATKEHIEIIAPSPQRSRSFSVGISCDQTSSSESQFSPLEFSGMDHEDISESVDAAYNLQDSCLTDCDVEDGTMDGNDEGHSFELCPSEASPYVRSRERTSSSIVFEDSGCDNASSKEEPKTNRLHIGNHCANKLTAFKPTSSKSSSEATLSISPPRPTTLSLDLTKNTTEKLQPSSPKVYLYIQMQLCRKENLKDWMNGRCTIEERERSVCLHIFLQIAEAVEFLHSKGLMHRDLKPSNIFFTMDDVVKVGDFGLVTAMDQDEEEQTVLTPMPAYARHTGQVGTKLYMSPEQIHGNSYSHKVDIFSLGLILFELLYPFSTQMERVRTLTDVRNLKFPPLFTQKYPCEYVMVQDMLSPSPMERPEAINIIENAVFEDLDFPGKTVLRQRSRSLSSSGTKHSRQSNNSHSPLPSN

[4] = Half-life in Sprague-Dawley rat at 1 mg/kg, iv measured upto 24 hrs; assay type: ADME, organism-based; settings: in vivo
[5] = Unbound clearance in Sprague-Dawley rat plasma at 1 mg/kg, iv measured upto 24 hrs; assay type: ADME, organism-based; settings: in vivo
[6] = Cmax in Sprague-Dawley rat at 3 mg/kg, po measured upto 24 hrs; assay type: ADME, organism-based; settings: in vivo
[7] = Volume of distribution at steady state in Sprague-Dawley rat at 1 mg/kg, iv measured upto 24 hrs; assay type: ADME, organism-based; settings: in vivo, read-out: Vdss
[8] = Unbound Cmax in Sprague-Dawley rat at 3 mg/kg, po measured upto 24 hrs; assay type: ADME, organism-based; settings: in vivo
[9] = Unbound fraction in Sprague-Dawley rat plasma at 1 mg/kg, iv measured upto 24 hrs; assay type: ADME, organism-based
[10] = molecular target: T2, Eukaryotic translation initiation factor 2-alpha kinase 3 (Homo sapiens) (UniProt Q9NZJ5); test: Activation of PERK in HEK293 cells transfected with ATF4 response element assessed as unbound effective concentration preincubated for 30 mins followed by tunicamycin addition and measured after 6 hrs by One-Glo reagent based plate reader assay; assay type: cell-based; settings: filed as activator, time 6.5 hrs
T2 sequence (whole entry): T1 sequence (Q9NZJ5 whole entry)

[11] = Protein binding in HEK293 cells assessed as free fraction; assay type: ADME, cell-based; settings: human
[12] = Oral bioavailability in Sprague-Dawley rat at 3 mg/kg measured upto 24 hrs; assay type: ADME, organism-based; settings: in vivo; for F: po, 3 mg/kg, 24 h
[13] = Unbound volume of distribution at steady state in Sprague-Dawley rat at 1 mg/kg, iv measured upto 24 hrs; assay type: ADME, organism-based; settings: in vivo
[14] = Unbound AUC in Sprague-Dawley rat at 3 mg/kg, po measured upto 24 hrs; assay type: ADME, organism-based; settings: in vivo
[15] = molecular target: T3, eIF-2-alpha kinase GCN2 (Homo sapiens, UniProt Q9P2K8); test: Activation of GCN2 in HEK293 cells transfected with ATF4 response element preincubated for 30 mins followed by halofuginone addition and measured after 6 hrs by One-Glo reagent based plate reader assay; assay type: cell-based
[16] = molecular target: T3, eIF-2-alpha kinase GCN2; settings: HEK293, filed as activator, time 6.5 hrs
[17] = molecular target: Cytochrome P450 3A4 (Homo sapiens, UniProt P08684); test: Inhibition of CYP3A4 in human liver microsomes using midazolam substrate incubated for 5 mins in presence of NADPH by UPLC-MS/MS analysis
[18] = molecular target: T3, eIF-2-alpha kinase GCN2; test: Inhibition of GCN2 (unknown origin) using GFP-eIF2alpha as substrate incubated for 1.5 hrs in presence of ATP by plate reader analysis
[19] = physchem; settings: 1-octanol/PBS, pH 7.4
[20] = tested on: Mus musculus; test: In vivo activation of GCN2 in BALB/c nude mouse xenografted with human HT-1080 cells assessed as […] ASNS protein level in tumor at 0.3 to 3 mg/kg after 6 hrs; assay type: functional, organism-based; settings: dose 0.3-3 mg/kg
[21] = tested on: Mus musculus; test: In vivo activation of GCN2 in BALB/c nude mouse xenografted with human HT-1080 cells assessed as […] ATF4 protein level in tumor at 0.3 to 3 mg/kg after 6 hrs; assay type: functional, organism-based; settings: dose 0.3-3 mg/kg
[22] = tested on: MOLM-16; test: Antitumor activity against human MOLM16 cells xenografted in BALB/c nude mouse assessed as reduction in tumor growth at 1 to 3 mg/kg administered twice a day for 17 days; assay type: functional, organism-based; settings: dose 1-3 mg/kg, time 17.0 day

T3 sequence (Q9P2K8 whole entry): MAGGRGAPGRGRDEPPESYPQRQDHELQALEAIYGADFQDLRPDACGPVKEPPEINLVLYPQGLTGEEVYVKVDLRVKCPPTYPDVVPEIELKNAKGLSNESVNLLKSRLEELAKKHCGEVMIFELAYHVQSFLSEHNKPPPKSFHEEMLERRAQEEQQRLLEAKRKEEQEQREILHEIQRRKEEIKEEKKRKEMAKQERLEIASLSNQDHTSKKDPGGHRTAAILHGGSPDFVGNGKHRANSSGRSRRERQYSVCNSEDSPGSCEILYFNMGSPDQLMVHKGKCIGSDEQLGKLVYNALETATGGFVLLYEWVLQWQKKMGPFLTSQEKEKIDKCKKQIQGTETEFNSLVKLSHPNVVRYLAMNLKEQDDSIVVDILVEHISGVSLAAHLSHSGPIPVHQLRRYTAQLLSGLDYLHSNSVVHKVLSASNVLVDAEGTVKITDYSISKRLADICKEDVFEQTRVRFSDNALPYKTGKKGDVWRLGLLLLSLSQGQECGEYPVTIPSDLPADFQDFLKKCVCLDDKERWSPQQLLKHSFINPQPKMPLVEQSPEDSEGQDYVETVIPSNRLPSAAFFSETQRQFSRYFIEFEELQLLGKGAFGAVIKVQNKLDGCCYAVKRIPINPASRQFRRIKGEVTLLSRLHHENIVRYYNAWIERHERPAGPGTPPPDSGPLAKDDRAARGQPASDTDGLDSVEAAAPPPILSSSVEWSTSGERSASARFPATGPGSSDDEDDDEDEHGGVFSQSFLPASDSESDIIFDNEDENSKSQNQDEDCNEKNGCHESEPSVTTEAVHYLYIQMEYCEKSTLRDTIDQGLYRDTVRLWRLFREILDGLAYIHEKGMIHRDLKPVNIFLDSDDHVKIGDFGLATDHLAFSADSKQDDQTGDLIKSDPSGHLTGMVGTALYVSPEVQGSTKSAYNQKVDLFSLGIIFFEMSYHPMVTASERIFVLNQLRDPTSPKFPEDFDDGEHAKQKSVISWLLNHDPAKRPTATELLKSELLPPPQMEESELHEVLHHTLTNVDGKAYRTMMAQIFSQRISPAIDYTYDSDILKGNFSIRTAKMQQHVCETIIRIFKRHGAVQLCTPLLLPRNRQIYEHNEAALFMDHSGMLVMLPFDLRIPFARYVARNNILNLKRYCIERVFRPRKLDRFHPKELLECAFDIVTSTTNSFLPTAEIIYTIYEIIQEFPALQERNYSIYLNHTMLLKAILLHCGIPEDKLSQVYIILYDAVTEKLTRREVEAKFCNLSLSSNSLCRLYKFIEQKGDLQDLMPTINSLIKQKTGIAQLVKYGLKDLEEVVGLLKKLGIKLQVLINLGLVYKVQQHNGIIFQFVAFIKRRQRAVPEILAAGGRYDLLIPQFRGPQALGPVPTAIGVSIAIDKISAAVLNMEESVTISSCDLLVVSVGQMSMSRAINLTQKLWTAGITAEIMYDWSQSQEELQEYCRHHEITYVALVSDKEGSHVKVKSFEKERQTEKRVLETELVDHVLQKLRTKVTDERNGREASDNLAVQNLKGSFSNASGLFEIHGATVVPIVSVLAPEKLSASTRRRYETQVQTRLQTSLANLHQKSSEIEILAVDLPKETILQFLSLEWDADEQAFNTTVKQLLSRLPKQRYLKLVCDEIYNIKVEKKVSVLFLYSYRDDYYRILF
Chain of Cytochrome P450 3A4 (P08684 whole entry): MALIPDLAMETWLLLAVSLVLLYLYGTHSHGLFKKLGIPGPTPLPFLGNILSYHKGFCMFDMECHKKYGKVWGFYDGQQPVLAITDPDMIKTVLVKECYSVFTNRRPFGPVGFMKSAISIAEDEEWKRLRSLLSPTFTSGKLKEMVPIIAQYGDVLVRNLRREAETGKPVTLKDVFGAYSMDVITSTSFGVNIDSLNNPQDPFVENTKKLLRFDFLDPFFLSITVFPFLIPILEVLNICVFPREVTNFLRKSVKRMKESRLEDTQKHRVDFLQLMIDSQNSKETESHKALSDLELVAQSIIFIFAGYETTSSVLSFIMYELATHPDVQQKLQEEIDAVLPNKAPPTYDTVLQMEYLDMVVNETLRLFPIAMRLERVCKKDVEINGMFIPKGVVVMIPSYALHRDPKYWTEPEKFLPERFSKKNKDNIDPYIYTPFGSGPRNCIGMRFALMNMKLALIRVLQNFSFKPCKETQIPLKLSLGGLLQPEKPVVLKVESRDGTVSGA

## COc1ncc(Cl)cc1S(=O)(=O)Nc1ccc(F)c(-c2ccc3c(-c4ncc[nH]4)n[nH]c3c2F)c1F
[1]
  CLH: 8.2 µL/min
[2]
  CLH: 4.4 µL/min
[3]
  EC50: 1400 nM
[4]
  half-life: 3.8 h
[5]
  CL free: 740 mL/min/kg
[6]
  Cmax: 0.62 µM
[7]
  Vd: 0.09 L/kg
[8]
  fCmax: 0.31 nM
[9]
  fraction unbound at 24 h: 0.001
[10]
  fEC50: 55 nM
[11]
  fraction unbound: 0.04
[12]
  F: 1.5%
[13]
  fVdss: 180 L/kg
[14]
  fAUC: 0.0011 µM·h

## CNC(=O)c1ncn2c1CC[C@H](c1c(F)ccc(NS(=O)(=O)c3cc(F)cnc3OC)c1F)C2
[1]
  CLH: 13 µL/min
[2]
  CLH: 7.8 µL/min
[3]
  EC50: 1500 nM
[4]
  half-life: 0.9 h
[5]
  CL free: 340 mL/min/kg
[6]
  Cmax: 14.2 µM
[7]
  Vd: 0.19 L/kg
[8]
  fCmax: 180 nM
[9]
  fraction unbound at 24 h: 0.012
[10]
  fEC50: 1000 nM
[11]
  fraction unbound: 0.71
[12]
  F: 95%
[13]
  fVdss: 15 L/kg
[14]
  fAUC: 0.14 µM·h

## CNC(=O)c1ncn2c1CC[C@H](c1c(F)ccc(NS(=O)(=O)c3cc(Cl)cnc3OC)c1F)C2
[3]
  EC50: 460 nM
[15]
  EC50: 240 nM
[16]
  fEC50: 110 nM
[17]
  IC50: 33000 nM
[10]
  fEC50: 240 nM
[11]
  fraction unbound: 0.45
[18]
  IC50: 69 nM

## CNC(=O)c1ncn2cc(-c3c(F)ccc(NS(=O)(=O)c4cc(F)cnc4C)c3F)ccc12
[3]
  EC50: 5800 nM
[19]
  logD at 1 h: 1.9

## CNC(=O)c1ncn2nc(-c3c(F)ccc(NS(=O)(=O)c4cc(Cl)cnc4OC)c3F)ccc12
[1]
  CLH: 5.9 µL/min
[2]
  CLH: 3.8 µL/min
[3]
  EC50: 870 nM
[10]
  fEC50: 280 nM
[11]
  fraction unbound: 0.32

## COc1ncc(Cl)cc1S(=O)(=O)Nc1ccc(F)c(-c2ccc3c(-c4ncc[nH]4)ncn3c2)c1F
[1]
  CLH: 15 µL/min
[2]
  CLH: 2.8 µL/min
[3]
  EC50: 1700 nM
[4]
  half-life: 2.4 h
[5]
  CL free: 390 mL/min/kg
[6]
  Cmax: 14.3 µM
[7]
  Vd: 0.1 L/kg
[8]
  fCmax: 16 nM
[9]
  fraction unbound at 24 h: 0.001
[10]
  fEC50: 170 nM
[11]
  fraction unbound: 0.1
[12]
  F: 70%
[13]
  fVdss: 93 L/kg
[14]
  fAUC: 0.093 µM·h

## CNC(=O)c1ncn2cc(-c3c(F)ccc(NS(=O)(=O)c4cc(Cl)cnc4OC)c3F)ncc12
[20]
  Activity: Active
[21]
  Activity: Active
[22]
  Activity: Active
[10]
  fEC50: 2400 nM

## CNC(=O)c1ncn2cc(-c3c(F)ccc(NS(=O)(=O)c4cc(C#N)cnc4OC)c3F)ccc12
[3]
  EC50: > 10000 nM
[19]
  logD at 1 h: 1.6

## CNC(=O)c1n[nH]c2c(F)c(-c3c(F)ccc(NS(=O)(=O)c4cc(Cl)cnc4OC)c3F)ccc12
[1]
  CLH: 11 µL/min
[2]
  CLH: 5.8 µL/min
[3]
  EC50: 6100 nM
[4]
  half-life: 8.9 h
[5]
  CL free: 88 mL/min/kg
[6]
  Cmax: 10.4 µM
[7]
  Vd: 0.11 L/kg
[8]
  fCmax: 20 nM
[9]
  fraction unbound at 24 h: 0.002
[10]
  fEC50: 180 nM
[11]
  fraction unbound: 0.03
[12]
  F: 25%
[13]
  fVdss: 56 L/kg
[14]
  fAUC: 0.13 µM·h

## CNC(=O)c1ncn2cc(-c3c(F)ccc([N-]S(=O)(=O)c4cc(Cl)cnc4OC)c3F)ncc12.[K+]
[6]
  Cmax: 40 µM
[8]
  fCmax: 28 nM
[12]; Sprague-Dawley
  bioavailability: 88%
[14]
  fAUC: 0.14 µM·h

## CNC(=O)c1ncn2cc(-c3c(F)ccc(NS(=O)(=O)c4cc(F)cnc4OC)c3F)ccc12
[3]
  EC50: > 10000 nM
[19]
  logD at 1 h: 2.3

## CNC(=O)c1ncn2c(F)c(-c3c(F)ccc(NS(=O)(=O)c4cc(Cl)cnc4OC)c3F)ccc12
[3]
  EC50: 1500 nM
[19]
  logD at 1 h: 3
[10]
  fEC50: 350 nM

## CNC(=O)c1ncn2cc(-c3c(F)ccc(NS(=O)(=O)c4cc(Cl)cnc4OC)c3F)ccc12
[1]
  CLH: 9.8 µL/min
[2]
  CLH: 9 µL/min
[3]
  EC50: 4900 nM
[4]
  half-life: 4.3 h
[5]
  CL free: 930 mL/min/kg
[6]
  Cmax: 20.6 µM
[7]
  Vd: 0.1 L/kg
[8]
  fCmax: 6.2 nM
[9]
  fraction unbound at 24 h: 0.001
[10]
  fEC50: 1100 nM
[11]
  fraction unbound: 0.22
[12]
  F: 54%
[13]
  fVdss: 320 L/kg
[14]
  fAUC: 0.029 µM·h
